The text below walks through data of patent US7846483B2, “Cosmetic composition for skin application suitable for relaxing expression wrinkles” (Labo Cosprophar AG, priority 2004, dated 2010).

For assay [1], the system named is endoplasmic reticulum vesicles. Briefly: Outflow of calcium ions from endoplasmic reticulum vesicles versus external magnesium ion concentration. It counts as biochemical. The conditions noted are these: with an increase in the concentration of Mg++ in the medium (FIG. 2). As to the method: In particular, the dependence of the flow at the outlet of the calcium ions on the external concentration of magnesium ions was evaluated. The results obtained are shown in the graph of FIG. 2.

In another assay the test system is POMC gene. The experiment in a line: Gene expression of the POMC gene in a culture of human keratinocytes. It is filed as cell-based. The conditions noted are these: human keratinocytes incubated for 24 h.
The subject of a further assay is CGRP. Briefly: CGRP synthesis in a culture of neurons. It counts as cell-based. The conditions noted are these: neurons incubated for 6 hours.
The test system of assay [2] is nerve-muscle co-culture model. The experiment in a line: Contraction frequency in a nerve-muscle co-culture model with acetyl Dipeptide-1 cetyl ester. It is filed as cell-based. The conditions noted are these: for contraction inhibition: 0.9%. Here is the method: The decontracting efficacy was evaluated, of dipeptide N-acetyl tyrosyl-arginyl (Dipeptide) hexadecyl ester, dissolved in a hydro-glycol excipients.
• 1. […] Evaluation of the contraction frequency in a nerve-muscle co-culture model in incubation with acetyl Dipeptide-1 cetyl ester at 0.9% for 5 minutes and 2 h.

Assay [3] deals with nerve-muscle co-culture model. Briefly: In vitro efficacy test on pentapeptide: contraction frequency in a nerve-muscle co-culture model. It counts as cell-based. The conditions noted are these: 0.3% by weight, contractions counted over 30 sec. Here is the method: In vitro efficacy test on pentapeptide
The frequency of the contractions was determined in a nerve-muscle co-culture model to evaluate the decontracting capacity of pentapeptide gly-pro-arg-pro -ala-NH2 SEQ ID NO 1, used at a concentration of 0.3% by weight.

Where no end group is shown, it is not given here.

On to Magnesium ions, for which, in assay [1], the “quantity of Calcium ions released from the endoplasmic reticulum vesicles” value is “decreases”.
Take “N-acetyl tyrosyl-arginyl (Dipeptide) hexadecyl ester [acetyl Dipeptide-1 cetyl ester]”: the “over-expression of the POMC gene with respect to the reference” value with POMC gene (0.9%) is given as “> +29%”; in the assay with POMC gene (1.9%), “> +63%”. Also, the “reduction in the CGRP synthesis with respect to the reference” value was −0% in the assay on CGRP (2.8%) and −50% in the assay with CGRP (4.7%). The contraction inhibition entry in assay [2] (after 5 minutes of incubation, 1 fiber out of 3) is reported as “higher than 20%”; in assay [2] (after 2 hours of incubation, all 3 fibers) it was 100%.
On to “gly-pro-arg-pro-ala-NH2 (GPRPA-NH2) [pentapeptide]”, for which the “average reduction in the contraction frequency” value in assay [3] (after 1 minute of incubation) is given as 69.75%; in assay [3] (after 2 hours of incubation), 60.75%.
With α-bungarotoxin [reference compound], in assay [2], the “DECREASE IN THE MUSCULAR FIBER CONTRACTION, Positive reference (α-bungarotoxin)” value is reported as “Blockage”.
